ChEMBL document CHEMBL3272338, “Bis-basic-substituted polycyclic aromatic compounds. A new class of antiviral agents. 8. Bis-basic derivatives of carbazole, dibenzofuran, and dibenzothiophene” (1977)

Test system: Encephalomyocarditis virus
Assay: Antiviral activity against Encephalomyocarditis virus infected in CF-1 mouse assessed as host survival time ratio at 10 mg/kg, sc administered 28, 22, 2 hrs before and 2 hrs after virus inoculation
Format: functional
Conditions: route subcutaneous

Row | SMILES | Ratio
1 | Cl.O=C(OCCCN1CCCCC1)c1ccc2c(c1)sc1ccc(C(=O)OCCCN3CCCCC3)cc12 | 1.4
2 | CC(C)CCN(CCCOC(=O)c1ccc2oc3ccc(C(=O)OCCCN(CCC(C)C)CCC(C)C)cc3c2c1)CCC(C)C | 0.91
3 | CCN(CC)CCCOC(=O)c1ccc2[nH]c3ccc(C(=O)OCCCN(CC)CC)cc3c2c1.Cl | 1.04
4 | O=C(CCCN1CCCCC1)c1ccc2[nH]c3ccc(C(=O)CCCN4CCCCC4)cc3c2c1 | 1.22
5 | CN(C)CCCOC(=O)c1ccc2oc3ccc(C(=O)OCCCN(C)C)cc3c2c1.Cl | 1.19
6 | CCCCN(CCCC)CCCOC(=O)c1ccc2sc3ccc(C(=O)OCCCN(CCCC)CCCC)cc3c2c1.Cl | 1.29
7 | C=CCN(CC=C)CCCOC(=O)c1ccc2oc3ccc(C(=O)OCCCN(CC=C)CC=C)cc3c2c1.Cl | 1.11
8 | CN(C)CCOc1ccc2sc3ccc(OCCN(C)C)cc3c2c1.Cl | 1.09
9 | CCN(CC)CCCOC(=O)c1ccc2c(c1)c1cc(C(=O)OCCCN(CC)CC)ccc1n2CC.Cl | 1.33
10 | CC1CCCN(COC(=O)c2ccc3oc4ccc(C(=O)OCN5CCCC(C)C5)cc4c3c2)C1.Cl (configuration not stated) | 1.07
11 | CC(C)CCN(CCCOC(=O)c1ccc2c(c1)sc1ccc(C(=O)OCCCN(CCC(C)C)CCC(C)C)cc12)CCC(C)C.Cl | 0.96
12 | CCN(CC)CCCCc1ccc2c(c1)c1cc(CCCCN(CC)CC)ccc1n2CC.Cl | 1.22
13 | CCN(CC)CCOC(=O)c1ccc2c(c1)sc1ccc(C(=O)OCCN(CC)CC)cc12.Cl | 1.14
14 | CCCCN(CCCC)CCCOC(=O)c1ccc2oc3ccc(C(=O)OCCCN(CCCC)CCCC)cc3c2c1.Cl | 1.06
15 | CCn1c2ccc(CCCCN3CCCCC3)cc2c2cc(CCCCN3CCCCC3)ccc21.Cl | 1.28

Test system: Encephalomyocarditis virus
Assay: Antiviral activity against Encephalomyocarditis virus infected in CF-1 mouse assessed as host survival time ratio at 50 mg/kg, sc administered 28, 22, 2 hrs before and 2 hrs after virus inoculation
Format: functional
Conditions: route subcutaneous

Row | SMILES | Ratio
16 | O=C(CCCN1CCCCC1)c1ccc2oc3ccc(C(=O)CCCN4CCCCC4)cc3c2c1 | 1.49
17 | Cl.O=C(OCCCN1CCCCC1)c1ccc2c(c1)sc1ccc(C(=O)OCCCN3CCCCC3)cc12 | 1.36
18 | CC(C)CCN(CCCOC(=O)c1ccc2oc3ccc(C(=O)OCCCN(CCC(C)C)CCC(C)C)cc3c2c1)CCC(C)C | 1.07
19 | CCN(CC)CCCOC(=O)c1ccc2oc3ccc(C(=O)OCCCN(CC)CC)cc3c2c1.Cl | 1.19
20 | CCN(CC)CCCOC(=O)c1ccc2[nH]c3ccc(C(=O)OCCCN(CC)CC)cc3c2c1.Cl | 1.69
21 | O=C(CCCN1CCCCC1)c1ccc2[nH]c3ccc(C(=O)CCCN4CCCCC4)cc3c2c1 | 0.96
22 | CN(C)CCCOC(=O)c1ccc2oc3ccc(C(=O)OCCCN(C)C)cc3c2c1.Cl | 1.26
23 | CCCCN(CCCC)CCCOC(=O)c1ccc2sc3ccc(C(=O)OCCCN(CCCC)CCCC)cc3c2c1.Cl | 1.48
24 | C=CCN(CC=C)CCCOC(=O)c1ccc2oc3ccc(C(=O)OCCCN(CC=C)CC=C)cc3c2c1.Cl | 1.2
25 | CN(C)CCOc1ccc2sc3ccc(OCCN(C)C)cc3c2c1.Cl | 1.13
26 | CCN(CC)CCCOC(=O)c1ccc2c(c1)c1cc(C(=O)OCCCN(CC)CC)ccc1n2CC.Cl | 1.74
27 | CC1CCCN(COC(=O)c2ccc3oc4ccc(C(=O)OCN5CCCC(C)C5)cc4c3c2)C1.Cl (configuration not stated) | 1.07
28 | CC(C)CCN(CCCOC(=O)c1ccc2c(c1)sc1ccc(C(=O)OCCCN(CCC(C)C)CCC(C)C)cc12)CCC(C)C.Cl | 0.98
29 | CCN(CC)CCCCc1ccc2c(c1)c1cc(CCCCN(CC)CC)ccc1n2CC.Cl | 1.22
30 | CCN(CC)CCOC(=O)c1ccc2c(c1)sc1ccc(C(=O)OCCN(CC)CC)cc12.Cl | 1.04
31 | CCN(CC)CCCOC(=O)c1ccc2sc3ccc(C(=O)OCCCN(CC)CC)cc3c2c1.Cl | 1.77
32 | CCCCN(CCCC)CCCOC(=O)c1ccc2oc3ccc(C(=O)OCCCN(CCCC)CCCC)cc3c2c1.Cl | 1.4
33 | CCn1c2ccc(CCCCN3CCCCC3)cc2c2cc(CCCCN3CCCCC3)ccc21.Cl | 1.45

Test system: Encephalomyocarditis virus
Assay: Antiviral activity against Encephalomyocarditis virus infected in CF-1 mouse assessed as host survival time ratio at 250 mg/kg, sc administered 28, 22, 2 hrs before and 2 hrs after virus inoculation
Format: functional
Conditions: route subcutaneous

Row | SMILES | Ratio
34 | O=C(CCCN1CCCCC1)c1ccc2oc3ccc(C(=O)CCCN4CCCCC4)cc3c2c1 | 1.81
35 | Cl.O=C(OCCCN1CCCCC1)c1ccc2c(c1)sc1ccc(C(=O)OCCCN3CCCCC3)cc12 | 1.55
36 | CC(C)CCN(CCCOC(=O)c1ccc2oc3ccc(C(=O)OCCCN(CCC(C)C)CCC(C)C)cc3c2c1)CCC(C)C | 1.11
37 | CCN(CC)CCCOC(=O)c1ccc2oc3ccc(C(=O)OCCCN(CC)CC)cc3c2c1.Cl | 1.22
38 | CCN(CC)CCCOC(=O)c1ccc2[nH]c3ccc(C(=O)OCCCN(CC)CC)cc3c2c1.Cl | 1.47
39 | O=C(CCCN1CCCCC1)c1ccc2[nH]c3ccc(C(=O)CCCN4CCCCC4)cc3c2c1 | 1
40 | CN(C)CCCOC(=O)c1ccc2oc3ccc(C(=O)OCCCN(C)C)cc3c2c1.Cl | 1.36
41 | CCCCN(CCCC)CCCOC(=O)c1ccc2sc3ccc(C(=O)OCCCN(CCCC)CCCC)cc3c2c1.Cl | 2.43
42 | C=CCN(CC=C)CCCOC(=O)c1ccc2oc3ccc(C(=O)OCCCN(CC=C)CC=C)cc3c2c1.Cl | 1.33
43 | CN(C)CCOc1ccc2sc3ccc(OCCN(C)C)cc3c2c1.Cl | 0.91
44 | CCN(CC)CCCOC(=O)c1ccc2c(c1)c1cc(C(=O)OCCCN(CC)CC)ccc1n2CC.Cl | 1.87
45 | CC1CCCN(COC(=O)c2ccc3oc4ccc(C(=O)OCN5CCCC(C)C5)cc4c3c2)C1.Cl (configuration not stated) | 1.05
46 | CC(C)CCN(CCCOC(=O)c1ccc2c(c1)sc1ccc(C(=O)OCCCN(CCC(C)C)CCC(C)C)cc12)CCC(C)C.Cl | 1.11
47 | CCN(CC)CCOC(=O)c1ccc2c(c1)sc1ccc(C(=O)OCCN(CC)CC)cc12.Cl | 1.2
48 | CCN(CC)CCCOC(=O)c1ccc2sc3ccc(C(=O)OCCCN(CC)CC)cc3c2c1.Cl | 1.3
49 | CCCCN(CCCC)CCCOC(=O)c1ccc2oc3ccc(C(=O)OCCCN(CCCC)CCCC)cc3c2c1.Cl | 1.6
50 | CCn1c2ccc(CCCCN3CCCCC3)cc2c2cc(CCCCN3CCCCC3)ccc21.Cl | 0.57

Test system: Encephalomyocarditis virus
Assay: Antiviral activity against Encephalomyocarditis virus infected in CF-1 mouse assessed as host survival time ratio at 50 mg/kg, po administered via gavage at 28, 22, 2 hrs before and 2 hrs after virus inoculation
Format: functional
Conditions: not given

Row | SMILES | Ratio
51 | O=C(CCCN1CCCCC1)c1ccc2oc3ccc(C(=O)CCCN4CCCCC4)cc3c2c1 | 1.06
52 | CCN(CC)CCCOC(=O)c1ccc2[nH]c3ccc(C(=O)OCCCN(CC)CC)cc3c2c1.Cl | 1.1
53 | O=C(CCCN1CCCCC1)c1ccc2[nH]c3ccc(C(=O)CCCN4CCCCC4)cc3c2c1 | 0.86
54 | CN(C)CCCOC(=O)c1ccc2oc3ccc(C(=O)OCCCN(C)C)cc3c2c1.Cl | 1.07
55 | CCCCN(CCCC)CCCOC(=O)c1ccc2sc3ccc(C(=O)OCCCN(CCCC)CCCC)cc3c2c1.Cl | 0.93
56 | CN(C)CCOc1ccc2sc3ccc(OCCN(C)C)cc3c2c1.Cl | 0.98
57 | CC1CCCN(COC(=O)c2ccc3oc4ccc(C(=O)OCN5CCCC(C)C5)cc4c3c2)C1.Cl (configuration not stated) | 1.03
58 | CCN(CC)CCCCc1ccc2c(c1)c1cc(CCCCN(CC)CC)ccc1n2CC.Cl | 0.98

Test system: Encephalomyocarditis virus
Assay: Antiviral activity against Encephalomyocarditis virus infected in CF-1 mouse assessed as host survival time ratio at 250 mg/kg, po administered via gavage as single dose at 22 to 28 hrs before virus inoculation
Format: functional
Conditions: not given

Row | SMILES | Ratio
59 | O=C(CCCN1CCCCC1)c1ccc2oc3ccc(C(=O)CCCN4CCCCC4)cc3c2c1 | 1.19
60 | CCN(CC)CCCOC(=O)c1ccc2[nH]c3ccc(C(=O)OCCCN(CC)CC)cc3c2c1.Cl | 1.17
61 | O=C(CCCN1CCCCC1)c1ccc2[nH]c3ccc(C(=O)CCCN4CCCCC4)cc3c2c1 | 0.88
62 | CN(C)CCCOC(=O)c1ccc2oc3ccc(C(=O)OCCCN(C)C)cc3c2c1.Cl | 1.07
63 | CCCCN(CCCC)CCCOC(=O)c1ccc2sc3ccc(C(=O)OCCCN(CCCC)CCCC)cc3c2c1.Cl | 0.93
64 | CN(C)CCOc1ccc2sc3ccc(OCCN(C)C)cc3c2c1.Cl | 1.06
65 | CCN(CC)CCCOC(=O)c1ccc2c(c1)c1cc(C(=O)OCCCN(CC)CC)ccc1n2CC.Cl | 0.75
66 | CC1CCCN(COC(=O)c2ccc3oc4ccc(C(=O)OCN5CCCC(C)C5)cc4c3c2)C1.Cl (configuration not stated) | 1
67 | CCN(CC)CCCCc1ccc2c(c1)c1cc(CCCCN(CC)CC)ccc1n2CC.Cl | 1.17
